Measured values: patent publication US12030908B2, “Antimicrobial compounds, compositions, and uses thereof” (Lakewood Amedex, Inc., priority 2017, dated 2024)
Entries after “also recorded” stand apart in the source; their conditions may differ.

Legend:
P. aeruginosa = experiment: Broth microdilution MIC at incremental pH, P. aeruginosa; type: cell-based
Description: MIC testing is conducted using the broth (Mueller Hinton Broth) microdilution procedures relevant to each organism group as established by the Clinical and Laboratory Standards Institute (CLSI; 3-7). MIC plates are prepared in accordance with CLSI (3-7). To prepare the test plates, automated liquid handlers are used to conduct serial dilutions and liquid transfers. Automated liquid handlers utilized in this study include the Multidrop 384 (Labsystems, Helsinki, Finland) and the Biomek 2000 (Beckman Coulter, Fullerton CA). The solution is diluted to desired pH using 1 M Citric Acid or 1 M NaOH buffer. A standardized inoculum of each test organism is prepared per CLSI methods (3, 5-7) to equal a 0.5 McFarland standard in the appropriate media followed by an additional 1:20 dilution (1:10 for anaerobes).
The plates are then inoculated with 10 μL of the diluted 0.5 McFarland suspension using the Biomek 2000 from low to high drug concentration, resulting in a final concentration of approximately 5×10^5 CFU/mL per well. An un-inoculated plate is incubated for the purpose of assessing solubility of the drug in the test media. The plates are stacked 3 to 4 high, covered with a sterile lid on the top plate, and incubated for 18 to 24 hours according to CLSI. The MIC is recorded as the lowest concentration of respective compound that inhibited visible growth of the organism.

[1] = tested on: Streptococcus pneumoniae (PRSP); experiment: MIC at pH 3.5, CLSI, Mueller-Hinton broth; type: cell-based
E. coli ATCC25922 = experiment: Urinary tract infection model in rats, transurethral treatment (Example 11); type: in vivo, Sprague-Dawley rats; conditions: 60 min
Description: Female Sprague-Dawley rats (n=6/group) are intraurethrally infected with the predetermined inoculum size of E. coli. At the specified time following infection with (depending on the in vivo growth curve), the animals are anaesthetized (ketamine/xylazine) and treated by transurethral administration with neutral saline (group 1), saline pH 3.5 adjusted with phosphoric acid (group 2), test compound Nu-8 pH 3.5 at 103 and 207 mg/kg (groups 3 and 4, respectively). When adjusting pH, the volume of phosphoric acid added are monitored and the final concentration of the pH adjusted dose solution are subsequently determined. The goal is to have the final concentration after pH adjustment within 10% of the desired dose so the final concentration after pH adjustment are reported. Volume of administration will be 300 μL. TABLE 9 (Animal Challenge and Treatment Schedule) summarizes the study groups.
Two hours prior to each infection animals are water deprived. Each animal is infected twice with 24 hrs difference by transurethral administration of 300 μL of bacterial suspension under light ketamine and xylazine anaesthesia. Prior to infection, urine is evacuated by digital pressure, cannula is gently inserted into the bladder via urethra, and 300 μL of bacterial suspension is inserted into the bladder. […]

[2] = tested on: Aspergillus fumigatus (ATCC13073); experiment: Individual mouse clinical signs (animal condition) in the Aspergillus fumigatus lung infection model (Example 24); type: in vivo, BALB/c mice; design: key: NAD = no abnormality detected
[3] = Part C, 1×10^3 conidia/animal, Nu-8 (10%), 3 doses, once daily for 3 days, aerosol, individual animals
[4] = Part D, 1×10^2 conidia/animal, Nu-8 (10%), 5 doses, once daily for 5 days, individual animals

**Q.** CCCCOP(=O)(O)OC[C@H]1O[C@@H](n2ccc(N)nc2=O)C[C@@H]1OP(=O)(O)OCCCC [Nu-8, sodium ((2R,3S,5R)-5-(4-amino-2-oxopyrimidin-1(2H)-yl)-3-((butoxyoxidophosphor-yl)oxy)tetrahydrofuran-2-yl)methyl butyl phosphate] was tested. Which MIC (P. aeruginosa; pH 1) did it give?
**A.** 9.38 mg/mL

**Q.** What about the MIC (P. aeruginosa; pH 3) of the same molecule?
**A.** 18.75 mg/mL

**Q.** And the MIC (P. aeruginosa; pH 4)?
**A.** 37.5 mg/mL

**Q.** And the MIC (P. aeruginosa; pH 5)?
**A.** 75 mg/mL

**Q.** And the MIC (P. aeruginosa; pH 7)?
**A.** >75 mg/mL

**Q.** And the “Nu-8 MIC (mg/mL) at pH 3.5” value [1]?
**A.** 9.38-18.75 mg/mL

**Q.** And the “mean CFU log 10 per mL of bladder tissue (tissue plus urine)” value (E. coli ATCC25922; pH 3.5, 103 mg/kg transurethral)?
**A.** 5.53 Log 10 CFUs/mL bladder tissue

**Q.** What about the “mean CFU log 10 per mL of bladder tissue (tissue plus urine)” value (E. coli ATCC25922; pH 3.5, 207 mg/kg transurethral) of the same molecule?
**A.** 4.60 Log 10 CFUs/mL bladder tissue

**Q.** And the “Animal Condition Day 1” value ([2]; Part A, 3 doses, once daily for 3 days, individual animals 19-24)?
**A.** Normal

**Q.** What about the “Animal Condition Day 1” value ([2]; Part A, 5 doses, once daily for 5 days, individual animals 25-30) of the same molecule?
**A.** Normal

**Q.** And the “Animal Condition Day 1” value ([2]; Part B, 3 doses, once daily for 3 days, individual animals 23-30)?
**A.** NAD

**Q.** What about the “Animal Condition Day 1” value ([2]; Part B, single dose, individual animals 15-22) of the same molecule?
**A.** NAD

**Q.** And the “Animal Condition Day 1” value [2, 3]?
**A.** NAD

**Q.** And the “Animal Condition Day 2” value [2, 3]?
**A.** Animal dull

**Q.** What about the “Animal Condition Day 3” value [2, 3] of the same molecule?
**A.** Animal dull; also recorded: Moribund

**Q.** And the “Animal Condition Day 1” value [2, 4]?
**A.** NAD

**Q.** What about the “Animal Condition Day 2” value [2, 4] of the same molecule?
**A.** NAD

**Q.** What about the “Animal Condition Day 3” value [2, 4] of the same molecule?
**A.** NAD

**Q.** And the “Animal Condition Day 4” value [2, 4]?
**A.** NAD

**Q.** What about the “Animal Condition Day 5” value [2, 4] of the same molecule?
**A.** NAD
